Tested on: mice marrow cells
Conditions: 20 mg/kg
Description: The study objective was detection and quantitative estimate of cytogenetic (mutagenic) activity of pharmacologic substances in polychromatophil cells (PCC) of mammal marrow. The method is based on microscopic recording of cells with micronuclei.
The experiments were performed to 2 months old male and female F1 (CBAx C57BI6/J) cross-breed mice weighing 18-20 g. Each group included 6 animals. The animals were kept at 12 hours light pattern with free food and water access. Animal experiments for assessment of mutagenic properties of the protein/polypeptide complex with single and five-time dosing were conducted in compliance with official records. Three sessions of experiments were carried out with corresponding controls: therapeutic dose was tested on male animals with a single introduction; subtoxic dose was tested on male animals with a single introduction; therapeutic dose was tested on male animals with a single introduction; subtoxic dose was tested on male animals and female with five-time introduction.
Taking into account that the possible presumed method for usage of the PPC at a clinic was intracutaneous, subcutaneous introduction, and external application, in this study subcutaneous introduction of the substance to mice was used. The PPC complex dosing for assessment of mutagenic activity was calculated based on the maximum human recommended daily therapeutic dose (TD). Subcutaneous introduction of PPC was recommended in the amount of 0.2 to 6 ml at 0.1 mg/ml concentration. In this case, a human therapeutic dose (TD), including a child's dose, can be 0.08 mg/kg/daily. In order to calculate an experiment dosing for mice, a conversion factor is recommended that takes into account a human or animal body surface area to weight ratio. In our study, it was 8.33. Therefore, the mice TD was approximately 8.33 x human TD (0.7 mg/kg).
As a subtoxic dose, 10mg/kg, the maximum possible in this experiment conditions dosing was used, as the substance was presented in 0.1 mg/ml concentration, and the normally used amount of substance for mice is 0.1 ml per 10 g. […]

## O=P1(N(CCCl)CCCl)NCCCO1 (stereo not drawn) [Cyclophosphamide, cyclophosphamide]
Compared to control P<0.005
  polychromatophilic to normochromatic erythrocytes ratio: found to shift to the latter
Male mice
  frequency of micronucleus cells: 62.1%
Male mice, against reference, P<0.001
  increased frequency of micronucleus cells: 19.6 times

Reference: patent publication EP2730585B1, “PROTEIN-P[…] OBTAINED FROM TISSUES OF EMBRYOS OF HOOFED ANIMALS , USE ON SKIN TISSUE, METHOD FOR PRODUCING SAID COMPLEX AND PHARMACEUTICAL COMPOSITION” (Aktsionernoe Obschestvo "Pharm-Sintez", priority 2011, dated 2012)
